Assay results: ChEMBL document CHEMBL3507680, “University of Dundee, Gates Library screen for HepG2 cell viability”

Test: Human HepG2 cell viability assay in 384 well format
Assay type: toxicity, cell-based
Parameters: dose 125 nL, time 70.5 hour; cytotoxicity at 70.5 h: concentration not given beside the values
Conditions: HepG2 cells, read-out: Inhibition

SMILES | cytotoxicity at 70.5 h [%]
CCN1CCN(Cc2coc(-c3cccc(F)c3)n2)CC1 | 20.2
N#Cc1cn(C2CC2)c(=O)n(CC(O)c2ccc(F)cc2)c1=O (configuration not stated) | -16.6
Cc1noc2ncc(C(=O)NCC3CCCO3)cc12 (configuration not stated) | -7.11
Cc1cc(NC(=O)NCC(O)c2ccc(F)cc2)n(C)n1 (configuration not stated) | -12.7
Cc1noc2ncc(C(=O)NCC3CCS(=O)(=O)C3)cc12 (configuration not stated) | -7.14
CCN(CC1CCOC1)C(=O)c1cnc2onc(C)c2c1 (configuration not stated) | -8.61
Cc1nc(C)c(CC(=O)Nc2nc(C)c(C)s2)c(=O)[nH]1 | -17.1
CC(Cn1ccnc1)NC(=O)NCCc1cccs1 (configuration not stated) | -11.6
CC(Cn1ccnc1)NC(=O)NCCc1cccnc1 (configuration not stated) | -2.45
O=C(COCC1CC1)Nc1ncn(CC(=O)N2CCCCCC2)n1 | -3.31
CC(C)(CNC(=O)CCCOc1cccc(F)c1)C(N)=O | -14.4
c1cncc(-c2noc(CN3CCc4cncnc4C3)n2)c1 | -12.6
COc1ccc(-c2nc(CN3CCc4cncnc4C3)no2)cc1 | -3.32
O=C(Nc1ncn(CC(=O)N2CCCCCC2)n1)C1CCCC1 | -7.56
COCCS(=O)(=O)Nc1ccc(-n2cncn2)c(F)c1 | -8.99
Cc1ccc(-c2noc(CN3CCc4cncnc4C3)n2)cc1 | 11.6
CCCc1noc(CN2CCCCC2Cn2cncn2)n1 (configuration not stated) | -7.74
COc1ccc(COCC(=O)N2CCN(CC(C)(C)O)CC2)cc1 | -0.338
COc1cccc(COCC(=O)N2CCCN(CC(N)=O)CC2)c1 | -9.55
CCN1CCN(C(=O)COCc2cccc(OC)c2)CC1 | -6.27
Cc1ccc(CNC(=O)Cn2nc(-c3ccc(F)cc3)oc2=O)cc1F | -7.42
O=C(Cn1nc(-c2ccc(F)cc2)oc1=O)NCc1ccccc1F | -5.95
COc1cccc(COCC(=O)N2CCN(S(C)(=O)=O)CC2)c1 | -4.61
Cc1ccsc1C(=O)NCc1ccnc(OCC(F)(F)F)c1 | -5.25

SMILES | cytotoxicity at 70.5 h [%]
Cc1ccoc1C(=O)NCc1ccnc(OCC(F)(F)F)c1 | -3.36
Cc1cc(C(=O)NCc2ccnc(OCC(F)(F)F)c2)no1 | -9.23
Cc1ccc(C(=O)N2CCC(Oc3ccccc3)CC2)c(=O)[nH]1 | 10.3
CC(O)CN1CCN(Cc2csc(-c3cnn(C)c3)n2)CC1 (configuration not stated) | -9.86
CC(C)c1nnc2n1CCN(CC(=O)N1CCc3sccc3C1)C2 | -6.79
Cc1ccc(O)c(CNCC2CCCN2c2cccnn2)n1 (configuration not stated) | -11.5
Cc1cc(CN2CCN(C(=O)NC(C)Cn3ccnc3)CC2)on1 (configuration not stated) | 29.6
N#Cc1cccnc1N1CCC(C2CCCCCN2C(=O)C2CC2)CC1 (configuration not stated) | 5.51
CC(C)c1noc(CCCC(=O)NC(C)c2ccccn2)n1 (configuration not stated) | -9.67
COc1cc(C(=O)Nc2cn[nH]c2)ccc1C | -7
O=C(Nc1cn[nH]c1)c1ccncc1 | 4.52
CC(=O)N1CCN(C(=O)CCn2c(C)nc3ccccc3c2=O)CC1 | -7.85
CN(Cc1ccncc1)C(=O)NC1CCCN(c2ncccn2)C1 (configuration not stated) | -1.22
CCN(CC)C(=O)Cn1ccc2cc(NC(C)=O)ccc21 | -3.27
CCC(=O)Nc1ccc2c(ccn2CC(=O)N(CC)CC)c1 | -3.74
CCN(CC)C(=O)Cn1ccc2cc(NC(=O)COC)ccc21 | -2.77
Cc1ccc(C(=O)N(C)Cc2ccc3c(c2)OCO3)c(=O)[nH]1 | -4.29
COC1CCN(C(=O)Cc2csc(-c3ccccc3)n2)CC1 | -5.23
CC(C)(C)n1cc(C(=O)N2CCN(Cc3cccnc3)CC2)cn1 | -7.69
COc1c(CNC(c2ccccc2F)c2nccn2C)c(C)nn1C (configuration not stated) | -4.51
CC(C)(C)n1cc(C(=O)N2CCN(Cc3ccncc3)CC2)cn1 | -2.1
Cc1nc2ccccc2c(=O)n1CCCC(=O)N1CCNC(=O)CC1 | 2.21
Cc1nn(C)c(N(C)C)c1CNC1CCOc2c(Cl)cccc21 (configuration not stated) | 23.4
CC(C)(C)n1cc(C(=O)N2CCN(Cc3ccco3)CC2)cn1 | -8.01

SMILES | cytotoxicity at 70.5 h [%]
CC(Cn1ccnc1)NC(=O)N1CCN(Cc2ccncc2)CC1 (configuration not stated) | -2.15
CN1CCCC1CNC(=O)CCOc1ccc(Br)cc1 (configuration not stated) | 2.76
CN(CC(=O)N1CCCC1)C(=O)Cc1csc(-c2ncccn2)n1 | -1.25
O=C(Nc1cnn(CCN2CCOCC2)c1)c1ccccc1Cl | 0.235
CCN(CC)C(=O)Cn1ccc2cc(NC(=O)NC3CC3)ccc21 | -3.42
O=C(CCc1ccc(-c2ccccc2)[nH]1)N1CCCC(n2ccnc2)C1 (configuration not stated) | -1.63
N#Cc1cccnc1N1CCC(C2CCCCCN2C(N)=O)CC1 (configuration not stated) | -3.78
CNc1nc(CNC(=O)Nc2cccc(Cl)c2Cl)cs1 | -1.34
CCN(CC)C(=O)Cn1ccc2cc(NC(=O)C3CCCCC3)ccc21 | 14.5
CC(Cn1ccnc1)NC(=O)N1CCN(Cc2ccco2)CC1 (configuration not stated) | 0.365
CN1CCCC1CNC(=O)CCCOc1ccc(Br)cc1 (configuration not stated) | -3.72
Cc1cc(NC(=O)CN2CCn3c(nnc3C(C)C)C2)n(C)n1 | 34.7
Cc1cnn(CCNCc2csc(-c3ccccc3)n2)c1 | 15.6
Cc1nc(C2CCCN2CCCS(N)(=O)=O)no1 (configuration not stated) | 17
CC(C(=O)N1CCCN(Cc2ccc(C#N)cc2)CC1)n1cncn1 (configuration not stated) | -1.82
CCOC(=O)CN(C)C1CCc2ccccc21 (configuration not stated) | 26.7
CCOCC(O)CN1CCN(C(=O)Cc2cccc(C)c2)CC1 (configuration not stated) | -4.31
CCn1c(CN2CCN(CCOC)CC2)nc2c(F)cccc21 | 2.86
Cc1n[nH]c(=O)c2c(NC(=O)CN3CCOCC3C)oc(C)c12 (configuration not stated) | 4.42
Cc1n[nH]c(=O)c2c(NC(=O)CN3CCOCC3)oc(C)c12 | -8.38
Cc1nc(CN2CCN(C(=O)c3c(C)noc3C)CC2)cs1 | -3.65
CN(Cc1nc2c(cnn2C)c(=O)[nH]1)Cc1ccccc1Cl | -4.36
Cc1ccc(CN(C)Cc2nc3c(cnn3C)c(=O)[nH]2)c(C)c1 | 7.52
COc1cccc(CN(C)Cc2nc3c(cnn3C)c(=O)[nH]2)c1OC | -5.01

SMILES | cytotoxicity at 70.5 h [%]
COc1ccccc1CCNC(=O)N1CCCC(c2nncn2C)C1 (configuration not stated) | -1.17
CC1CN(CC2CCCC2)CCN1c1ccc2nncn2n1 (configuration not stated) | 4.49
CN(Cc1ncc(-c2ccccc2)o1)C1CCCN(c2cccnn2)C1 (configuration not stated) | 2.02
O=C(CN1CCN(c2ccc3nncn3n2)CC1)NC1CCCC1 | 1.25
CCc1nc(CN2CCCN(C(=O)CC3CCCC3)CC2)cs1 | 4.58
O=C(CCSc1ccccc1F)NS(=O)(=O)c1ccc2c(c1)OCCO2 | -4.85
O=C(CCc1ccc(F)cc1)NS(=O)(=O)c1ccc2c(c1)OCCO2 | -4.67
O=C(O)c1csc(S(=O)(=O)Nc2cccc(OCC(F)(F)F)c2)c1 | -3.57
Cc1nc(CN2CCCC(NCc3ccsc3)C2)no1 (configuration not stated) | 1.36
Cc1cnn(CC2CN(Cc3cccc(C(=O)N(C)C)c3)CCO2)c1 (configuration not stated) | 3.78
CC(=O)N1CCN(Cn2nc(-c3ccc(F)cc3)oc2=O)CC1 | -8.85
Fc1cccc(Oc2ccc(CNCC3CNc4ccnn4C3)cn2)c1 (configuration not stated) | 0.403
CCC(C)(C)NC(=O)Cn1nc(C)nc1-c1cccc(C)c1 | -3.94
CC(O)CNC(=O)NCc1ccc(N2CCNC(=O)C2)cc1 (configuration not stated) | 2.26
Cc1cc(C)n(CC2CN(CC(=O)Nc3nncs3)CCO2)n1 (configuration not stated) | 0.137
Cc1cc(C[S+]([O-])CC(=O)NCC(C)C)no1 (configuration not stated) | -1.65
CN1CCN(C2CCN(CCOc3ccc(F)cc3)CC2)C1=O | 18.4
COc1cn(-c2ccccc2)nc1C(=O)NCCCN1CCCC(C)C1 (configuration not stated) | -11.2
CC(C)OCCN1CCC(N2CCN(C)C2=O)CC1 | -2.99
Cc1cnn(CC2CN(Cc3cccc(OCC(N)=O)c3)CCO2)c1 (configuration not stated) | -5.97
CCc1csc(C2CCCN(C(=O)c3c[nH]c(C)n3)C2)n1 (configuration not stated) | -12
CCc1nc(C2CCCN2CC(=O)Nc2c(C)n[nH]c2C)no1 (configuration not stated) | 5.42
Cc1nc(C)n(CC2CCCCN2Cc2nnc(C3CC3)o2)n1 (configuration not stated) | 0.151
COCCN1CCC(NCc2cccc(F)c2)C1 (configuration not stated) | 26.3

SMILES | cytotoxicity at 70.5 h [%]
CC(C)c1nn(C)c(N(C)C)c1CNCC(O)c1ccccc1F (configuration not stated) | 17.9
O=C(NCC1CCOC1)c1csc(-c2cccc(Cl)c2)n1 (configuration not stated) | 1.75
O=c1[nH]c(CN(Cc2ccco2)C2CCCC2)nc2ccccc12 | 5.19
CCOc1ccc(Cl)c(C(=O)N2CCN(C(=O)c3ccoc3C)CC2)n1 | -1.97
Cn1ncc2c(=O)[nH]c(CN(Cc3ccco3)C3CCCC3)nc21 | -0.279
CCOc1ccc(Cl)c(C(=O)N2CCN(c3cnccn3)CC2)n1 | 38.9
Cn1cc(CCC(=O)N2CCN(Cc3ccncc3)CC2)cn1 | 2.28
Cc1ccc(C(O)CNCc2c(C(C)C)nn(C)c2N(C)C)cc1 (configuration not stated) | 0.581
CNC(=O)c1ccc(C(=O)N2CCCC(n3cc(C)cn3)C2)cn1 (configuration not stated) | 40.9
Cc1cnn(C2CCCN(C(=O)c3ccc(N(C)C)nn3)C2)c1 (configuration not stated) | -10.7
CC(C)Cc1cc(NC(=O)c2ccc[nH]2)n(C)n1 | -11.1
COC(=O)c1cccn1C1CCN(C(=O)c2cn[nH]c2C)CC1 | -1.46
CCn1cnnc1C1CCN(C(=O)c2ccccc2OC)CC1 | -8.77
CN(c1cccnn1)C1CCN(C(=O)c2ccc3c(c2)COC3)CC1 | -13.7
c1ccc(CCN2CCN(c3ccc4nncn4n3)CC2)nc1 | -6.96
O=C(c1ccc2c(c1)COC2)N1CCC(Nc2cccnn2)CC1 | -1.47
CC(NC(=O)CNCCn1cccn1)c1ccc2c(c1)CCCC2 (configuration not stated) | -4.4
CCc1nccn1C1CCCN(C(=O)c2ccc3[nH]c(=O)[nH]c3c2)C1 (configuration not stated) | 29
Cc1oc(C(=O)O)cc1S(=O)(=O)Nc1cc(Cl)ccc1F | -7.55
Cc1cccc(NS(=O)(=O)c2cc(C(=O)O)oc2C)c1Cl | 1.03
Cc1nn(C)c(N(C)C)c1CNC1CCc2c(Cl)cccc21 (configuration not stated) | -1.83
